Read-outs that look alike come from different tables or passages of the source.

One experiment addresses human CB2 receptor (Homo sapiens (Human), UniProt P34972). Put plainly: Radioligand binding assay, [3H]-CP-55,940, HEK cell membranes expressing human CNR2. As to the method:
(§1) Radioligand Binding Assay
(§2) The affinity of the compounds of the invention for cannabinoid receptors was determined using recommended amounts of membrane preparations (PerkinElmer) of human embryonic kidney (HEK) cells expressing the human CNR1 or CNR2 receptors in conjunction with 1.5 or 2.6 nM [3H]-CP-55,940 (Perkin Elmer) as radioligand, respectively. Binding was performed in binding buffer (50 mM Tris, 5 mM MgCl2, 2.5 mM EDTA, and 0.5% (wt/vol) fatty acid free BSA, pH 7.4 for CB1 receptor and 50 mM Tris, 5 mM MgCl2, 2.5 mM EGTA, and 0.1% (wt/vol) fatty acid free BSA, pH 7.4 for CB2 receptor) in a total volume of 0.2 mL for 1 h at 30° C. shaking. The reaction was terminated by rapid filtration through microfiltration plates coated with 0.5% polyethylenimine (UniFilter GF/B filter plate; Packard). Bound radioactivity was analyzed for Ki using nonlinear regression analysis (Activity Base, ID Business Solution, Limited), with the Kd values for [^3H]CP55,940 determined from saturation experiments.

In another experiment the target is human CB1 receptor (Homo sapiens (Human), UniProt P21554). Put plainly: Radioligand binding assay, [3H]-CP-55,940, HEK cell membranes expressing human CNR1. As to the method:
as §1, §2

Where [1] appears, read: membranes of HEK cells expressing human CNR2, 2.6 nM [3H]-CP-55,940, 1 h at 30° C., read-out: human CB2 Ki.
Setting [2] is: membranes of HEK cells expressing human CNR1, 1.5 nM [3H]-CP-55,940, 1 h at 30° C., read-out: human CB1 Ki.

Sequence of human CB1 receptor (P21554 whole entry): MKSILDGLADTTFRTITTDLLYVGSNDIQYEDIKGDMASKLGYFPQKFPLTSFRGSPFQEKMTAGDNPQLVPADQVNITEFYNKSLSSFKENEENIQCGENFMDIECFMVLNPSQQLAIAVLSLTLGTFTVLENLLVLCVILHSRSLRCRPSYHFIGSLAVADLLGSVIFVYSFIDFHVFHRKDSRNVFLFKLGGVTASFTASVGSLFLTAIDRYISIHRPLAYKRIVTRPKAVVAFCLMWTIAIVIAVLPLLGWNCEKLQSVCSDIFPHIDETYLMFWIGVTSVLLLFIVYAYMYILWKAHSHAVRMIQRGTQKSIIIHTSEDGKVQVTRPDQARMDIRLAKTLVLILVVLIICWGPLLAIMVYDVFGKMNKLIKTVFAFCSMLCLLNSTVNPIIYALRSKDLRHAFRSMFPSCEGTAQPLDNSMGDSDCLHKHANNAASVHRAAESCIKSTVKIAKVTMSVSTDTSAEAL
Sequence of human CB2 receptor (P34972 whole entry): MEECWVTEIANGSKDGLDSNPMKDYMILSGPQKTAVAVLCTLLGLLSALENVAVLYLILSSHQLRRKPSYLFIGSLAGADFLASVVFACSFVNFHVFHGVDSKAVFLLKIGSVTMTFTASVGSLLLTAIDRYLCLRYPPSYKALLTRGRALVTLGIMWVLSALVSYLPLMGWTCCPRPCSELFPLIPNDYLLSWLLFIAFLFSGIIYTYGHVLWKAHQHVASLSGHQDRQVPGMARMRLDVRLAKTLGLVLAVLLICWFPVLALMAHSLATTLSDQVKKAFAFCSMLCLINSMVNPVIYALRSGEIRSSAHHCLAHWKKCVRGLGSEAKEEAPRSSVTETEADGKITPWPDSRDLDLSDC

Broadly, the Ki is a dissociation constant, usually derived from enzyme kinetics or from competition with a known ligand. As for `CC(C)(C)c1nc(N2CC[C@H](O)C2)c2nn(Cc3ccccc3S(=O)(=O)F)nc2n1` [Example 1, 2-({5-tert-Butyl-7-[(3S)-3-hydroxypyrrolidin-1-yl]-2H-[1,2,3]triazolo[4,5-d]pyrimidin-2-yl}methyl)benzene-1-sulfonyl fluoride], the Ki on human CB2 receptor is 1.16 µM; on human CB1 receptor it was more than 10 µM.

`CC(C)(C)c1nc(N2CCC(F)(F)C2)c2nn(Cc3ccccc3CS(=O)(=O)F)nc2n1` [Example 2, (2-{[5-tert-Butyl-7-(3,3-difluoropyrrolidin-1-yl)-2H-[1,2,3]triazolo[4,5-d]pyrimidin-2-yl]methyl}phenyl)methanesulfonyl fluoride]: the Ki was 0.637 µM at human CB2 receptor and more than 10 µM at human CB1 receptor.

On to `CC(C)(C)c1nc(N2CC[C@H](O)C2)c2nn(Cc3ccccc3CN=C=S)nc2n1` [Example 3, (3S)-1-(5-tert-Butyl-2-{[2-(isothiocyanatomethyl)phenyl]methyl}-2H-[1,2,3]triazolo[4,5-d]pyrimidin-7-yl)pyrrolidin-3-ol], for which the Ki at human CB2 receptor (setting [1]) was 0.529 µM; at human CB1 receptor (setting [2]), more than 10 µM.

Regarding `CC(C)(C)c1nc(N2CCC(F)(F)C2)c2nn(Cc3ccccc3N=C=S)nc2n1` [Example 4, 5-tert-Butyl-7-(3,3-difluoropyrrolidin-1-yl)-2-[(2-isothiocyanatophenyl)methyl]-2H-[1,2,3]triazolo[4,5-d]pyrimidine], the Ki at human CB2 receptor (setting [1]) is 0.453 µM; at human CB1 receptor (setting [2]), more than 10 µM.

In the case of `CC(C)(C)c1nc(N2CCC(F)(F)C2)c2nn(Cc3ccccc3S(=O)(=O)F)nc2n1` [Example 5, 2-{[5-tert-Butyl-7-(3,3-difluoropyrrolidin-1-yl)-2H-[1,2,3]triazolo[4,5-d]pyrimidin-2-yl]methyl}benzene-1-sulfonyl fluoride], the Ki at human CB2 receptor is 0.361 µM; on human CB1 receptor, more than 10 µM.

Turning to `CC(C)(C)c1nc(N2CCC(F)(F)C2)c2nn(Cc3ccccc3CN=C=S)nc2n1` [Example 6, 5-tert-Butyl-7-(3,3-difluoropyrrolidin-1-yl)-2-{[2-(isothiocyanatomethyl)phenyl]methyl}-2H-[1,2,3]triazolo[4,5-d]pyrimidine], the Ki was determined as 0.211 µM at human CB2 receptor (setting [1]) and 4.88 µM at human CB1 receptor (setting [2]).

As for `C#Cc1cccc(S(=O)(=O)F)c1Cn1nc2nc(C(C)(C)C)nc(N3CCC(F)(F)C3)c2n1` [Example 7, 2-[[5-tert-Butyl-7-(3,3-difluoropyrrolidin-1-yl)triazolo[4,5-d]pyrimidin-2-yl]methyl]-3-ethynylbenzenesulfonyl fluoride], the Ki on human CB2 receptor is 0.421 µM; at human CB1 receptor it was more than 10 µM.

The values are drawn from US10450321B2, “[1,2,3]triazolo[4,5-D]pyrimidine derivatives” (Hoffmann-La Roche Inc., priority 2016, dated 2019).
